# Test results as given in the supplement of paper PMC10307832.
# Experiments:
# Assay in all cases: relative viability (nuclei count vs DMSO), 5 days (fraction); higher = more cells survive
# [1] = compound: C=CCc1cccc(/C=N/NC(=O)CN2CCN(Cc3ccccc3)CC2)c1O [PAC-1] + N=C(N)NC(=N)NCCc1ccccc1 [Phenformin] (partner 250 µM)
# Summary of the method: (§1)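 Lung cancer cell lines, seeded in 1536-well plates, were treated the following day by pin tool with a single drug or with five library-drug doses (not always all listed) in √10 steps on top of a fixed anchor-drug dose. Cells were fixed and nuclei stained in one step after 5 days, and nuclei were counted. Relative viability is the nuclei count for treated wells divided by that for vehicle wells, reported as medians of duplicate plates.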
# [2] = compound: C=CC(=O)N1CCC[C@@H](n2nc(-c3ccc(Oc4ccccc4)cc3)c3c(N)ncnc32)C1 [Ibrutinib] + CC(=O)Nc1cccc(-n2c(=O)n(C3CC3)c(=O)c3c(Nc4ccc(I)cc4F)n(C)c(=O)c(C)c32)c1 [Trametinib] (partner 0.02 µM)
# Summary of the method: as §1
# [3] = compound: C=CCc1cccc(/C=N/NC(=O)CN2CCN(Cc3ccccc3)CC2)c1O [PAC-1] + Cc1nc(NC(=O)N2CCC[C@H]2C(N)=O)sc1-c1ccnc(C(C)(C)C(F)(F)F)c1 [Alpelisib] (partner 2 µM)
# Summary of the method: as §1
# [4] = compound: C=CC(=O)N1CCC[C@@H](n2nc(-c3ccc(Oc4ccccc4)cc3)c3c(N)ncnc32)C1 [Ibrutinib] + CC1(C)CCC(c2ccc(Cl)cc2)=C(CN2CCN(c3ccc(C(=O)NS(=O)(=O)c4ccc(N[C@H](CCN5CCOCC5)CSc5ccccc5)c(S(=O)(=O)C(F)(F)F)c4)cc3)CC2)C1 [Navitoclax] (partner 0.5 µM)
# Summary of the method: as §1
Cell Line,relative viability ([1]; first compound 0.02 µM),relative viability ([1]; first compound 0.06325 µM),relative viability ([1]; first compound 0.2 µM),relative viability ([1]; first compound 2 µM),relative viability ([2]; first compound 0.005 µM),relative viability ([2]; first compound 0.01581 µM),relative viability ([2]; first compound 0.05 µM),relative viability ([2]; first compound 0.1581 µM),relative viability ([2]; first compound 0.5 µM),relative viability ([3]; first compound 0.02 µM),relative viability ([3]; first compound 0.06325 µM),relative viability ([3]; first compound 0.2 µM),relative viability ([3]; first compound 2 µM),relative viability ([4]; first compound 0.005 µM),relative viability ([4]; first compound 0.01581 µM),relative viability ([4]; first compound 0.05 µM),relative viability ([4]; first compound 0.1581 µM),relative viability ([4]; first compound 0.5 µM)
HCC-827,0.383,0.402,0.368,0.4,0.49,0.489,0.416,0.509,0.196,0.964,0.927,0.895,1,1.01,0.995,1.08,1.04,0.434
HOP-62,0.692,0.541,0.585,0.647,0.367,0.331,0.374,0.424,0.385,1.07,0.875,0.798,0.85,1.16,1.11,1.16,1.07,1.2
IA-LM,,,,,,,,,,0.955,0.613,0.619,0.832,0.768,0.853,0.79,0.79,0.951
LC-2-ad,0.609,0.654,0.573,0.512,0.914,0.907,,0.929,0.863,0.942,0.845,0.791,0.887,0.408,0.362,0.535,0.477,0.402
LCLC-97TM1,0.507,0.456,0.424,0.427,0.192,0.172,0.202,0.192,0.155,,0.215,0.281,0.192,0.486,0.561,0.474,0.398,0.377
LCLC-103H,0.347,0.322,0.365,0.341,0.677,0.645,0.716,0.739,0.605,0.861,0.864,1.05,0.928,,,,,
LK-2,0.258,0.479,0.381,0.559,0.931,0.7,0.816,0.702,0.668,1.08,1.22,1.2,0.971,,0.7,0.851,0.956,0.75
LOU-NH91,0.713,0.695,0.668,0.798,0.744,0.74,0.725,0.783,0.655,0.706,0.739,0.692,0.738,0.601,0.572,0.549,0.585,0.407
LU99A,0.824,0.761,0.908,0.874,0.532,0.575,0.528,0.574,0.553,0.528,0.508,0.495,0.472,0.725,0.684,0.772,0.814,0.664
LXF-289,0.52,0.53,0.501,0.511,0.703,0.649,0.689,0.694,0.722,1.1,1.02,1.06,1.01,1.02,0.895,0.956,0.97,0.917
NCI-H23,0.788,0.814,0.713,0.815,0.313,0.38,0.362,0.366,0.361,0.529,0.692,0.741,0.764,0.853,0.886,0.771,0.787,0.97
NCI-H322M,0.716,0.819,0.776,0.762,0.466,0.457,0.532,0.519,0.508,0.7,0.857,0.794,0.911,1.21,1.18,1.26,1.25,0.724
NCI-H358,0.305,0.314,0.269,0.374,0.102,0.194,,0.138,0.116,0.811,0.836,0.924,0.572,,,,,
NCI-H522,0.78,0.662,0.693,0.631,0.757,0.714,0.661,0.71,0.57,,,,,,,,,
NCI-H650,0.469,0.452,0.403,0.444,0.921,0.967,1.01,1.06,0.976,1.09,1.23,1.23,1.17,,,,,
NCI-H661,0.255,0.299,0.278,0.29,0.509,0.478,0.436,0.532,0.433,0.581,0.56,0.671,0.687,,,,,
NCI-H1299,,,,,,,,,,1.06,1,1.02,1.01,1.07,1.02,1.11,1.07,1.04
NCI-H1563,0.655,0.679,0.663,0.66,,,,,,0.98,0.935,0.922,1.02,,,,,
NCI-H1623,0.6,0.565,0.592,0.602,,,,,,,,,,,,,,
NCI-H1648,,,,,0.565,0.433,0.316,0.418,0.257,,,,,,,,,
NCI-H1650,0.427,0.478,0.411,0.42,0.881,0.535,0.46,0.527,0.477,,,,,0.998,0.932,1.24,1.25,1.1
NCI-H1703,,,,,,,,,,0.364,0.414,0.356,0.344,0.896,0.96,1.05,1.17,0.731
NCI-H2342,0.552,0.474,0.579,0.611,0.801,0.873,0.659,0.773,0.676,,,,,,,,,
SW 900,0.43,0.575,0.568,0.415,0.86,0.654,0.803,0.901,0.603,,,,,,,,,
